# According to ChEMBL document CHEMBL3085716, “Hytramycins V and I, anti-Mycobacterium tuberculosis hexapeptides from a Streptomyces hygroscopicus strain” (J Nat Prod, 2013):
# What was measured:
# Assay type in all cases: functional
# [1] = tested on: Mycobacterium tuberculosis; experiment: Ratio of MIC for Mycobacterium tuberculosis harboring luxABCDE under hypoxic condition in presence of 10% fetal bovine serum to MIC for Mycobacterium tuberculosis harboring luxABCDE under hypoxic condition in absence of 10% fetal bovine serum by MABA assay
# [2] = tested on: Mycobacterium tuberculosis; experiment: Ratio of MIC for Mycobacterium tuberculosis harboring luxABCDE under hypoxic condition in presence of 4% bovine serum albumin to MIC for Mycobacterium tuberculosis harboring luxABCDE under hypoxic condition in absence of 4% bovine serum albumin by MABA assay
# [3] = tested on: Mycobacterium tuberculosis; experiment: Antimycobacterial activity against Mycobacterium tuberculosis harboring luxABCDE under hypoxic condition after 10 days by MABA assay in presence of 10% fetal bovine serum; details: 240 h
# [4] = tested on: Mycobacterium tuberculosis; experiment: Antimycobacterial activity against Mycobacterium tuberculosis harboring luxABCDE under hypoxic condition after 10 days by MABA assay in presence of 4% bovine serum albumin; details: 240 h
# [5] = tested on: Mycobacterium tuberculosis; experiment: Antimycobacterial activity against capreomycin-resistant Mycobacterium tuberculosis under normoxic condition after 7 days by MABA assay; details: 168 h
# [6] = tested on: Mycobacterium tuberculosis; experiment: Antimycobacterial activity against cycloserine-resistant Mycobacterium tuberculosis ATCC 35826 under normoxic condition after 7 days by MABA assay; details: ATCC 35826, 168 h
# [7] = tested on: Mycobacterium tuberculosis; experiment: Antimycobacterial activity against isoniazid-resistant Mycobacterium tuberculosis ATCC 35822 under normoxic condition after 7 days by MABA assay; details: ATCC 35822, 168 h
# [8] = tested on: Mycobacterium tuberculosis; experiment: Antimycobacterial activity against kanamycin-resistant Mycobacterium tuberculosis ATCC 35827 under normoxic condition after 7 days by MABA assay; details: ATCC 35827, 168 h
# [9] = tested on: Mycobacterium tuberculosis; experiment: Antimycobacterial activity against moxifloxacin-resistant Mycobacterium tuberculosis under normoxic condition after 7 days by MABA assay; details: 168 h
# [10] = tested on: Mycobacterium tuberculosis; experiment: Antimycobacterial activity against rifampin-resistant Mycobacterium tuberculosis ATCC 35838 under normoxic condition after 7 days by MABA assay; details: ATCC 35838, 168 h
# [11] = tested on: Mycobacterium tuberculosis; experiment: Antimycobacterial activity against streptomycin-resistant Mycobacterium tuberculosis ATCC 35820 under normoxic condition after 7 days by MABA assay; details: ATCC 35820, 168 h
# [12] = tested on: Mycobacterium tuberculosis; experiment: Antimycobacterial activity against Mycobacterium tuberculosis harboring luxABCDE under hypoxic condition after 10 days by MABA assay; details: for MIC90: Mycobacterium tuberculosis, 240 h
Structure (SMILES),Ratio [1],Ratio [2],MIC90 [3],MIC90 [4],MIC90 [5],MIC90 [6],MIC90 [7],MIC90 [8],MIC90 [9],MIC90 [10],MIC90 [11],MBC90 [12],MIC90 [12]
CC(C)C[C@@H]1NC(=O)[C@H]2CCCNN2C(=O)[C@H](C)N(C)C(=O)[C@H]2CCCNN2C(=O)[C@@H]2CCCNN2C(=O)[C@@H](C(C)C)NC1=O,10,10,20.9 µg/mL,19.1 µg/mL,12.1 µg/mL,20.6 µg/mL,12.1 µg/mL,12.4 µg/mL,9 µg/mL,9.6 µg/mL,11.6 µg/mL,19.5 µg/mL,2.4 µg/mL
CC[C@H](C)[C@H]1NC(=O)[C@H](CC(C)C)NC(=O)[C@H]2CCCNN2C(=O)[C@H](C)N(C)C(=O)[C@H]2CCCNN2C(=O)[C@@H]2CCCNN2C1=O,10,10,9.9 µg/mL,10.8 µg/mL,4.8 µg/mL,7.4 µg/mL,4.7 µg/mL,4.9 µg/mL,4 µg/mL,4.7 µg/mL,4.7 µg/mL,10.5 µg/mL,1.5 µg/mL
NNC(=O)c1ccncc1 [ISONIAZID],,,> 140 µg/mL,> 140 µg/mL,0.1 µg/mL,0.03 µg/mL,> 1.1 µg/mL,0.1 µg/mL,0.1 µg/mL,0.1 µg/mL,0.03 µg/mL,,> 140 µg/mL
Cc1ncc([N+](=O)[O-])n1CCO [METRONIDAZOLE],,,5.3 µg/mL,13.5 µg/mL,> 87.6 µg/mL,> 87.6 µg/mL,> 87.6 µg/mL,> 87.6 µg/mL,> 87.6 µg/mL,> 87.6 µg/mL,> 87.6 µg/mL,,> 87.6 µg/mL
CO[C@H]1/C=C/O[C@@]2(C)Oc3c(C)c(O)c4c(O)c(c(/C=N/N5CCN(C)CC5)c(O)c4c3C2=O)NC(=O)/C(C)=C\C=C\[C@H](C)[C@H](O)[C@@H](C)[C@@H](O)[C@@H](C)[C@H](OC(C)=O)[C@@H]1C [RIFAMPIN],,,0.1 µg/mL,0.2 µg/mL,0.04 µg/mL,< 0.01 µg/mL,0.01 µg/mL,< 0.01 µg/mL,0.1 µg/mL,> 3.3 µg/mL,< 0.01 µg/mL,0.5 µg/mL,< 0.1 µg/mL
CN[C@@H]1[C@H](O[C@H]2[C@H](O[C@H]3[C@H](O)[C@@H](O)[C@H](N=C(N)N)[C@@H](O)[C@@H]3N=C(N)N)O[C@@H](C)[C@]2(O)C=O)O[C@@H](CO)[C@H](O)[C@H]1O [STREPTOMYCIN],,,0.6 µg/mL,0.4 µg/mL,1.1 µg/mL,0.4 µg/mL,0.1 µg/mL,1.1 µg/mL,0.5 µg/mL,0.1 µg/mL,> 9.3 µg/mL,,0.6 µg/mL
